Calls of active or inactive are those of the source. The calls are words filed in the database; no cut-off is given here.
How the values were obtained:
[1] = biological target: Malate dehydrogenase, cytoplasmic (Mus musculus) (UniProt P14152); assay: Binding affinity to mouse cytoplasmic malate dehydrogenase by chromatographic analysis
[2] = biological target: Pyruvate dehydrogenase E1 component subunit alpha, somatic form, mitochondrial (Rattus norvegicus) (UniProt P26284); assay: Binding affinity to mitochondrial pyruvate dehydrogenase E1 component subunit alpha in Sprague-Dawley rat heart homogenate after 15 mins by chromatographic analysis; type: tissue-based
Pyruvate dehydrogenase E1 component subunit alpha, somatic form, mitochondrial (Rattus norvegicus), sequence (P26284 whole entry): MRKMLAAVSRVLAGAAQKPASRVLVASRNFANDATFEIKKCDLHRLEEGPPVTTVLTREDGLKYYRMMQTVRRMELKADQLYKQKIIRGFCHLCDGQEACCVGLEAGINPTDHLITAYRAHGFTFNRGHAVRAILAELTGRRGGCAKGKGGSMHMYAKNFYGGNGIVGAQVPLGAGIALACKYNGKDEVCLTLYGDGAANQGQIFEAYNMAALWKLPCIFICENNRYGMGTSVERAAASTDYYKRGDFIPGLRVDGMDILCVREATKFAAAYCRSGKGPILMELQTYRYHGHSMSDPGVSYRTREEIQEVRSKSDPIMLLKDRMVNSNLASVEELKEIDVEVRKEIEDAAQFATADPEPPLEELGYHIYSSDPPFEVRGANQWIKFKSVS

[3] = biological target: L-lactate dehydrogenase A chain (Rattus norvegicus) (UniProt P04642); assay: Binding affinity to L-lactate dehydrogenase A chain in Sprague-Dawley rat heart homogenate after 15 mins by chromatographic analysis; type: tissue-based
[4] = biological target: Medium-chain specific acyl-CoA dehydrogenase, mitochondrial (Rattus norvegicus) (UniProt P08503); assay: Binding affinity to mitochondrial medium-chain specific acyl-CoA dehydrogenase in Sprague-Dawley rat heart homogenate after 15 mins by chromatographic analysis; type: tissue-based
Medium-chain specific acyl-CoA dehydrogenase, mitochondrial (Rattus norvegicus), sequence (P08503 whole entry): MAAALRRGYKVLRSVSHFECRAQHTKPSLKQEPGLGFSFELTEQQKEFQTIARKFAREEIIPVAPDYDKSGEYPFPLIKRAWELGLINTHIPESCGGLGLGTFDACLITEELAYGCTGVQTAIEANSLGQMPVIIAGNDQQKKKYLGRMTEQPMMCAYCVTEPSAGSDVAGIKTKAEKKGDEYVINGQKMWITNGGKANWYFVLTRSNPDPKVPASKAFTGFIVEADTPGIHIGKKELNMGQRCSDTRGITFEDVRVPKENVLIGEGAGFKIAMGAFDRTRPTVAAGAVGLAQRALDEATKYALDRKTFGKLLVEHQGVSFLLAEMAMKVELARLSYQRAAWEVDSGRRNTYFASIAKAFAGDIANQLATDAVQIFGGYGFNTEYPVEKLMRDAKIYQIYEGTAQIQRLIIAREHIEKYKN

[5] = biological target: L-lactate dehydrogenase B chain (Rattus norvegicus) (UniProt P42123); assay: Binding affinity to L-lactate dehydrogenase B chain in Sprague-Dawley rat heart homogenate after 15 mins by chromatographic analysis relative to rosiglitazone; type: tissue-based
L-lactate dehydrogenase B chain (Rattus norvegicus), sequence (P42123 whole entry): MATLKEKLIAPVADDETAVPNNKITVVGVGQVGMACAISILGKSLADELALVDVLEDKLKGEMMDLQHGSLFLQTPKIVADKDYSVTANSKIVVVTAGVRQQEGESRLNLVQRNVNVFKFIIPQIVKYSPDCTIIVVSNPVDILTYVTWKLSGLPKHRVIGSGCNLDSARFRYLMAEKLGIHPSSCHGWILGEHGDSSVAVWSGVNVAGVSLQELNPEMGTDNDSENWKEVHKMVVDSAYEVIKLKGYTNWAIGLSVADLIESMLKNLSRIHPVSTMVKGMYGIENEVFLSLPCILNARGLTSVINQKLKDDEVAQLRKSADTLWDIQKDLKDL

[6] = biological target: Glutamate dehydrogenase 1, mitochondrial (Rattus norvegicus) (UniProt P10860); assay: Binding affinity to mitochondrial glutamate dehydrogenase 1 in Sprague-Dawley rat heart homogenate after 15 mins by chromatographic analysis; type: tissue-based
[7] = biological target: T1, Long-chain specific acyl-CoA dehydrogenase, mitochondrial (Rattus norvegicus) (UniProt P15650); assay: Binding affinity to mitochondrial long-chain specific acyl-CoA dehydrogenase in Sprague-Dawley rat heart homogenate after 15 mins by chromatographic analysis relative to rosiglitazone; type: tissue-based
T1 sequence (whole entry): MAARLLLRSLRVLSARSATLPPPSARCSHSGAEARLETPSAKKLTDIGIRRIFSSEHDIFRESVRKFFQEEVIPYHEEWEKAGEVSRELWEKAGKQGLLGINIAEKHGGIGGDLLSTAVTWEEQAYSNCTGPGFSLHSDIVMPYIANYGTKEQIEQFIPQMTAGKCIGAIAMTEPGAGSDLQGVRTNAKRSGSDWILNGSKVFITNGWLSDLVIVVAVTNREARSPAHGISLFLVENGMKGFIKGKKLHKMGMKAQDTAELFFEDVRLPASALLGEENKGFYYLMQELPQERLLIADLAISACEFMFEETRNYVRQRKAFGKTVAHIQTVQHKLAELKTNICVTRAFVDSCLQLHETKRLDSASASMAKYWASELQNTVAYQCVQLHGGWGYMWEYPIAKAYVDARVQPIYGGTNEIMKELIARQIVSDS

[8] = biological target: Malate dehydrogenase, mitochondrial (Rattus norvegicus) (UniProt P04636); assay: Binding affinity to mitochondrial malate dehydrogenase in Sprague-Dawley rat heart homogenate after 15 mins by chromatographic analysis; type: tissue-based
Malate dehydrogenase, mitochondrial (Rattus norvegicus), sequence (P04636 whole entry): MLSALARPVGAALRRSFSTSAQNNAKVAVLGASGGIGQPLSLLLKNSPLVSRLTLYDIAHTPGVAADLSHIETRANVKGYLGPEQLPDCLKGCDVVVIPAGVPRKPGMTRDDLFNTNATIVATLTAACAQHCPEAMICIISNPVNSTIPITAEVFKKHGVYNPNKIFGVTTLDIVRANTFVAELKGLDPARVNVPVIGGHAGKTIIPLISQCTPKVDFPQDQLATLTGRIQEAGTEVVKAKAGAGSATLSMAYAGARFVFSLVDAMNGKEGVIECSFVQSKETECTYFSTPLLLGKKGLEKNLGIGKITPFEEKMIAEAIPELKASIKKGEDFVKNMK

[9] = biological target: Dihydrolipoyllysine-residue succinyltransferase component of 2-oxoglutarate dehydrogenase complex, mitochondrial (Mus musculus) (UniProt Q9D2G2); assay: Binding affinity to mouse mitochondrial dihydrolipoyllysine-residue succinyltransferase component of 2-oxoglutarate dehydrogenase complex by chromatographic analysis
Dihydrolipoyllysine-residue succinyltransferase component of 2-oxoglutarate dehydrogenase complex, mitochondrial (Mus musculus), sequence (Q9D2G2 whole entry, one chain of several): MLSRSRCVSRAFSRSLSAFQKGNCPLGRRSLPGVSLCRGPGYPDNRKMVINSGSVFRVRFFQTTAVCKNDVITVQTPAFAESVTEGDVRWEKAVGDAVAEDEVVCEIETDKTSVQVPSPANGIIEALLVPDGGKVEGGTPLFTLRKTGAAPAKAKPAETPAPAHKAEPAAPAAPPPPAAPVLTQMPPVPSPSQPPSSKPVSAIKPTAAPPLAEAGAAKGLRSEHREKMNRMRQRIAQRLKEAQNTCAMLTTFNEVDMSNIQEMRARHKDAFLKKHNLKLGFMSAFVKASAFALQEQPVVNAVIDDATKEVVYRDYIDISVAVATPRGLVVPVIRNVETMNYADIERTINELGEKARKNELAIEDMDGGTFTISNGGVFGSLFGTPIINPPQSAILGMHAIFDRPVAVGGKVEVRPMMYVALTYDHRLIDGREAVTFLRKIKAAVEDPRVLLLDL

[10] = biological target: 2-oxoglutarate dehydrogenase complex component E1 (Mus musculus) (UniProt Q60597); assay: Binding affinity to mouse mitochondrial 2-oxoglutarate dehydrogenase E1 component by chromatographic analysis
2-oxoglutarate dehydrogenase complex component E1 (Mus musculus), sequence (Q60597 whole entry, one chain of several): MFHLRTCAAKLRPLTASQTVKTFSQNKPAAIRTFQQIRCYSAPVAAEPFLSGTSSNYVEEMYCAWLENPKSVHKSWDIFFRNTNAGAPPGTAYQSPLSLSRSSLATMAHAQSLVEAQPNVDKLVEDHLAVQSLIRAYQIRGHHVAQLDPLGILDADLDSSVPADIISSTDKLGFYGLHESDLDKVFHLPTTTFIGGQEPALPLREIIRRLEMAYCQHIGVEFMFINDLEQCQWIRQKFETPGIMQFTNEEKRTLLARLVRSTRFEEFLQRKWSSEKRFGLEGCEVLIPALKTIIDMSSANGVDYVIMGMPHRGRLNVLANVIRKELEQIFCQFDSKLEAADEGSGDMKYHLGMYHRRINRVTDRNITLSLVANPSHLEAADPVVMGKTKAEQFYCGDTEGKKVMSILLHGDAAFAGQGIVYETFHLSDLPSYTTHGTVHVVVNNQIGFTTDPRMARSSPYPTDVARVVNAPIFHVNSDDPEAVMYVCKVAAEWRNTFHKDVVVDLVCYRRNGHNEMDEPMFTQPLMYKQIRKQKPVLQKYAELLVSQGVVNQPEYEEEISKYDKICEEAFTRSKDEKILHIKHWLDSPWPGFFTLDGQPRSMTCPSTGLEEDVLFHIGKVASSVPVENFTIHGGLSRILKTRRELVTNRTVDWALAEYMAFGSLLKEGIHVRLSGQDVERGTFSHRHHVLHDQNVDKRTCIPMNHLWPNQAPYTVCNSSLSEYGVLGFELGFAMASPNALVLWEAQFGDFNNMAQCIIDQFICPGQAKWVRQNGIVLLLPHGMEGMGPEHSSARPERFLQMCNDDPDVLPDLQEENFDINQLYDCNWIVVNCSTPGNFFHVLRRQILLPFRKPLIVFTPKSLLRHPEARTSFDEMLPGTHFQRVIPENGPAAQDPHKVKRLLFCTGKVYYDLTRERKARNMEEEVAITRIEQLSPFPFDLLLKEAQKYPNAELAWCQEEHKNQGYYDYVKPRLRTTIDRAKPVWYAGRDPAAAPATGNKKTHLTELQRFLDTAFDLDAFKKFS

[11] = biological target: T2, Dihydrolipoyl dehydrogenase, mitochondrial (Mus musculus) (UniProt O08749); assay: Binding affinity to mouse mitochondrial dihydrolipoyl dehydrogenase by chromatographic analysis relative to rosiglitazone
T2 sequence (whole entry): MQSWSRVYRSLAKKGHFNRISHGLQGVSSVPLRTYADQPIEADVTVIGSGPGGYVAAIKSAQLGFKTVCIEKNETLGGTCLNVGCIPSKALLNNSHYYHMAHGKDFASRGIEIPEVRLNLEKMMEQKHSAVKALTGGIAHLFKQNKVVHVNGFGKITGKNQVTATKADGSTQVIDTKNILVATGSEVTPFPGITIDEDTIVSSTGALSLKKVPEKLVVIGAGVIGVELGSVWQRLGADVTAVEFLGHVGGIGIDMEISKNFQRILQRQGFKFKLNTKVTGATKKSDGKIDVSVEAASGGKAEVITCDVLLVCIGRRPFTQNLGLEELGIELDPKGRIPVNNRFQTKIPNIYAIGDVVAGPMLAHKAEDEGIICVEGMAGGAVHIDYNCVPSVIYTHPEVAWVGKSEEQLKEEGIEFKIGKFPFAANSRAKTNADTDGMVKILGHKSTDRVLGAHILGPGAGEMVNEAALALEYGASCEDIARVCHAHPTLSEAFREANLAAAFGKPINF

[12] = biological target: Glyceraldehyde-3-phosphate dehydrogenase (Rattus norvegicus) (UniProt P04797); assay: Binding affinity to glyceraldehyde 3-phosphate dehydrogenase in Sprague-Dawley rat heart homogenate after 15 mins by chromatographic analysis; type: tissue-based
Glyceraldehyde-3-phosphate dehydrogenase (Rattus norvegicus), sequence (P04797 whole entry): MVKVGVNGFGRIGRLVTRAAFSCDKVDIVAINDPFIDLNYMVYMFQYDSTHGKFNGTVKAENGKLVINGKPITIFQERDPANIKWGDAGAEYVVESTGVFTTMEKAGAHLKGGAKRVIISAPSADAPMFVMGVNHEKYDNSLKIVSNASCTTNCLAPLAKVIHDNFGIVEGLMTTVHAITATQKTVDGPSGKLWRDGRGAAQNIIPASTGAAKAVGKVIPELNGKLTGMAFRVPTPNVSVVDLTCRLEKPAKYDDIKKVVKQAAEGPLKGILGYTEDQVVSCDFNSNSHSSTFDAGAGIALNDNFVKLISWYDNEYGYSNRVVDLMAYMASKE

[13] = biological target: Short-chain specific acyl-CoA dehydrogenase, mitochondrial (Rattus norvegicus) (UniProt P15651); assay: Binding affinity to mitochondrial short-chain specific acyl-CoA dehydrogenase in Sprague-Dawley rat heart homogenate after 15 mins by chromatographic analysis; type: tissue-based
Short-chain specific acyl-CoA dehydrogenase, mitochondrial (Rattus norvegicus), sequence (P15651 whole entry): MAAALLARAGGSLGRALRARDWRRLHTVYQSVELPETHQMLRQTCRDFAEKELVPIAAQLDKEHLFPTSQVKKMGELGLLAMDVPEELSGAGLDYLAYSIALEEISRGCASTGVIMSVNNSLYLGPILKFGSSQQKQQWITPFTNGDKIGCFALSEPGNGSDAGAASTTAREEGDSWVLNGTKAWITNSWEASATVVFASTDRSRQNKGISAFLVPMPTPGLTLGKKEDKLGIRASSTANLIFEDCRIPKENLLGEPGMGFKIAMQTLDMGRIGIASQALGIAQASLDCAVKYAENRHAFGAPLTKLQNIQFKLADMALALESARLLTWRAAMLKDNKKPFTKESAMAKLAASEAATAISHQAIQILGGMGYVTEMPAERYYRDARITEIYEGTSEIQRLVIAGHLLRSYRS

[14] = biological target: Hydroxyacyl-coenzyme A dehydrogenase, mitochondrial (Rattus norvegicus) (UniProt Q9WVK7); assay: Binding affinity to mitochondrial short-chain L-3-hydroxyacyl-coenzyme A dehydrogenase in Sprague-Dawley rat heart homogenate after 15 mins by chromatographic analysis; type: tissue-based
Hydroxyacyl-coenzyme A dehydrogenase, mitochondrial (Rattus norvegicus), sequence (Q9WVK7 whole entry): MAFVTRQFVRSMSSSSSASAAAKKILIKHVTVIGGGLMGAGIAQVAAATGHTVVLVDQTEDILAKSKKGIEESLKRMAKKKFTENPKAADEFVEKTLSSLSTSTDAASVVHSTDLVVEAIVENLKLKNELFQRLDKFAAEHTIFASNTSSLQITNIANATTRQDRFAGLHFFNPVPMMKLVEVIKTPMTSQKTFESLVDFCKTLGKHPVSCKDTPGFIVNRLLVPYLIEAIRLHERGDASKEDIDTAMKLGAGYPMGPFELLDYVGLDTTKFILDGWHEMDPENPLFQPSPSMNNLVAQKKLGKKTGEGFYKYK

[15] = biological target: Very long-chain specific acyl-CoA dehydrogenase, mitochondrial (Rattus norvegicus) (UniProt P45953); assay: Binding affinity to mitochondrial very long-chain specific acyl-CoA dehydrogenase in Sprague-Dawley rat heart homogenate after 15 mins by chromatographic analysis; type: tissue-based
[16] = biological target: Isocitrate dehydrogenase [NADP], mitochondrial (Mus musculus) (UniProt P54071); assay: Binding affinity to mouse mitochondrial isocitrate dehydrogenase by chromatographic analysis
Isocitrate dehydrogenase [NADP], mitochondrial (Mus musculus), sequence (P54071 whole entry): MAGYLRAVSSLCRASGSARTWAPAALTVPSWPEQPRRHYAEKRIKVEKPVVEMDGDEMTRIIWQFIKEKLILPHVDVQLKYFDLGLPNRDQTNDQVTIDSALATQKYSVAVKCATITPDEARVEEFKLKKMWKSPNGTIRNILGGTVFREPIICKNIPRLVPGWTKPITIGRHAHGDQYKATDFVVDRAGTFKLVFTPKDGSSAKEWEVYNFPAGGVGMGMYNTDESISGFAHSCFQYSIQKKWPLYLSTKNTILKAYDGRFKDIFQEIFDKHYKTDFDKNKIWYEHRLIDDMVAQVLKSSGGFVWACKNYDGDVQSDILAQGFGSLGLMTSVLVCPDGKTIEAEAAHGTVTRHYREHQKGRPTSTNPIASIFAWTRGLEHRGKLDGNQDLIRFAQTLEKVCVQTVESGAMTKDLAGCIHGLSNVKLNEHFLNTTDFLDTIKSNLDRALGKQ

Malate dehydrogenase, cytoplasmic (Mus musculus), sequence (P14152 whole entry): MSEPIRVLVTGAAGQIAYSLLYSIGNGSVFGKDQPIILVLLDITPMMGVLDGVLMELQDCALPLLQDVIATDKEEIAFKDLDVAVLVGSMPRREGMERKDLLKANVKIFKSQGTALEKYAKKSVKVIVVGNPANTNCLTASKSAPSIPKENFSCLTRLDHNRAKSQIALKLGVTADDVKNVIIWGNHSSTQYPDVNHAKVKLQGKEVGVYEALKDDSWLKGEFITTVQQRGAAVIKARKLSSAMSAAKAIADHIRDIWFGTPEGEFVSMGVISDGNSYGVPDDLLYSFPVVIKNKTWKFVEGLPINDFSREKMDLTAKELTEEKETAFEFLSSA

- Activity [1]: Active
- Activity [2]: Active
- Activity [3]: Active
- Activity [4]: Active
- Activity [5]: Active
- Activity [6]: Active
- Activity [7]: Active
- Activity [8]: Active
- Activity [9]: Active
- Activity [10]: Active
- Activity [11]: Active
- Activity [12]: Active
- Activity [13]: Active
- Activity [14]: Active
- Activity [15]: Active
- Activity [16]: Active
SMILES: O=C1NC(=O)C(Cc2ccc(O)cc2)S1 (stereo unspecified)

Reference: ChEMBL document CHEMBL2177025, “Chemical proteomics-based analysis of off-target binding profiles for rosiglitazone and pioglitazone: clues for assessing potential for cardiotoxicity” (J Med Chem, 2012)
